The test system of one series is SH-SY5Y cells. The series can be described thus: MNNG-induced parthanatic cell death in SH-SY5Y cells (Alamar blue cell viability). The series is classed as cell-based. The following applies: for inhibition of MNNG-induced parthanatic cell death: 50 μM MNNG for 15 min, viability after 24 h; for IC50: Homo sapiens, SH-SY5Y, read-out: IC50, MNNG-induced parthanatic cell death. An excerpt: We developed an assay to screen for PAAN/MIF nuclease inhibitors. Single-stranded PAAN/MIF nuclease DNA substrate (FIG. 10A) was amine modified on the 5′ end and immobilized on a plate. Hybridization with a biotin-labeled complementary oligonucleotide followed by addition of streptavidin conjugated horseradish peroxidase enzyme (HRP) leads to retention of HRP on the surface within each well in the presence of intact PAAN/MIF nuclease DNA substrate, which can be quantitatively detected through colorimetric change at 450 nm using the HRP substrate 3,3′,5,5′-tetramethylbenzidine (TMB). In the presence of WT PAAN/MIF, there is reduced signal, indicative of cleavage of the PAAN/MIF nuclease substrate, while the signal is not attenuated without recombinant PAAN/MIF (FIGS. 1 and 10B). […] Thus, the rapafucin library containing 45,000 macrocyclic compounds in 3,000 pools of 15 compounds was screened using this assay. […] Several pools were identified that inhibit PAAN/MIF nuclease activity from the primary screen (FIG. 4A). […] Nine pools of compounds were identified that both inhibit PAAN/MIF cleavage of the substrate and protect against MNNG-induced parthanatic cell death by greater than 70% (FIG. 10D). […] Next, the 90 individual compounds in the 6 pools were synthesized and further assessed for inhibition of PAAN/MIF nuclease activity and MNNG-induced parthanatic cell death. Among them 12 compounds (compounds 16-18, 26-28, 41, 56, 66, 67, 76, and 77) were identified that block MIF nuclease activity and MNNG-induced parthanatic cell death by greater than 60% (FIG. 10F). Dose dependence (0.1 to 1.0 μM) were assessed for the 12 compounds against MNNG-induced parthanatic cell death (FIG. 11A and Table 2) and inhibition of PAAN MIF nuclease activity against the RF (FIG. 111B) and PS30 substrates (FIG. 11C).
(§1) Cell culture, transfection, primary neuronal culture and treatment. SH-SY5Y cells (ATCC) were cultured in DMEM containing 10% fetal bovine serum and penicillin/streptomycin at 37° C. under 5% C02. The cells were transfected using PolyFect reagent (Qiagen). Parthanatos was induced by the treatment of 50 μM MNNG for 15 min in SH-SY5Y cells. ABT-888 or PAAN/MIF inhibitors were pretreated with indicated concentration 1 h before MNNG treatment and cell death were assessed after 24 h. Primary cortical neurons from WT, PAAN/MIF KO, E22Q KI or P1G KI embryos were prepared as previously described See Kam et al. (2018) Science 362:eaat8407. Briefly, the cortex was dissected and cultured at embryonic day 16 in neurobasal media supplemented with B-27, 0.5 mM L-glutamine, penicillin and streptomycin (Invitrogen). Primary neurons were infected with AAV2-control, AAV2-PAAN/MIF WT, AAV2-PAAN/MIF E22Q, AAV2-PAAN/MIF E22A or AAV2-MIF P1G (ViGene Biosciences) at days in vitro (DIV) 4-5. ABT-888 or PAAN/MIF inhibitors were applied to neurons 1 h before α-syn PFF treatment. The neuron growth medium was replaced with fresh medium alone or including inhibitors every 3-4 days. α-syn PFF was added at DIV 7 and further incubated for indicated times followed by the cell death assay or biochemical experiments.
Cell death and viability assessment. Primary cultured cortical neurons were treated with 5 μg/ml of α-syn PFF for 14 days and cell death was determined by staining of all nuclei with 7 μM Hoechst 33342 and dead cell nuclei with 2 μM propidium iodide (PI) (Invitrogen). The numbers of total and dead cells were counted with the Axiovision 4.6 software (Carl Zeiss). Cell viability was determined by fluorescence at an excitation wavelength 570 nm and an emission wavelength 585 nm using Alamar Blue (Invitrogen). […]
(In general: The colour change of resazurin is a common sign of viable cells or microbes.)

Series [1] is described as follows: Measurement of compounds in brain after oral gavage (HPLC-MS). The class given is in vivo, C57BL/6 mice. Particulars: oral gavage 10 mg/kg. As to the method: The concentrations of compounds in brain tissue were measured by LC/MS. […] Bars represent means±s.e.m. ***P<0.0005, two-way ANOVA followed by Tukey's post hoc test (n=3). […] Quantification of noncleaved substrate. Bars represent mean±s.e.m. ***P<0.0005, two-way ANOVA followed by Tukey's post hoc test (n=4). […] Intensity of noncleaved genomic DNA is shown in the graph. Bars represent mean±s.e.m. ***P<0.0005, two-way ANOVA followed by Tukey's post hoc test (n=4).
Measurement of compound 121 in brain. Compound 56, compound 77, and compound 121 were resuspended in a vehicle solution and were administered at 10 mg/kg by oral gavage. After 2 h, mice were perfused with PBS and whole brain was isolated, weighed and grounded with a pestle to a very fine powder with liquid nitrogen. Then, 2-folds of acetonitrile were added to brain tissue sample and the mixture was centrifuged at 14,000 rpm, 4° C. for 10 m. The supernatant was used for analysis. The concentration of compounds in brain tissue were measured using HPLC-MS on a C-18 reverse phase HPLC column. Separations were achieved using a linear gradient of buffer B from 40% to 95% in A (A=0.1% formic acid in H20; B=0.1% formic acid in CH3CN) at a flow rate of 1 ml/min. Intracerebroventricular (ICV) injected brain samples at 0.5, 1, 2, 4 or 8 μM concentration were used for the standard curve.

The next series deals with PARP. The series can be described thus: MNNG-induced PAR accumulation (PARP activation), western blot. The class given is cell-based. The following applies: FIG. 12A. As to the method:
Tissue lysate preparation and western blot analysis. Dissected brain regions of interest were homogenized and prepared in lysis buffer [50 mM Tris-HCl (pH 7.4), 150 mM NaCl, 1 mM EDTA, 1% Triton x-100, 0.5% SDS, 0.5% sodium-deoxycholate, phosphatase inhibitor mixture I and II (Sigma-Aldrich, St. Louis, Mo.), and complete protease inhibitor mixture (Roche, Indianapolis, Ind.)]. The samples were rotated at 4° C. for 30 min for the complete lysis and centrifugated at 15,000×g for 30 min. Protein concentrations were determined using the BCA assay (Pierce) and samples were separated using SDS polyacrylamide gels and transferred onto nitrocellulose membranes. The blots were blocked with 5% non-fat milk in TBS-T (Tris buffered saline with 0.1% Tween—20) for 1 h, probed using various primary antibodies. Target antigens were incubated with appropriate HRP-conjugated secondary antibodies (Cell signaling) and were visualized by ECL substrate.
as §1
(A western blot detects proteins with antibodies after separation by electrophoresis.)

For `COc1ccc(CC[C@H]2OC(=O)[C@@H]3CCCCN3C(=O)C(=O)C(C)(C)COC(=O)C=CCCN(C)C(=O)[C@@H]3CCCN3C(=O)[C@H](COC(C)(C)C)N(C)C(=O)C(c3ccccc3)NC(=O)[C@H](C)N(C)C(=O)COc3cc(F)cc2c3)cc1OC` (mixture of isomers) [compound 121], in the series with SH-SY5Y cells, the “inhibition of MNNG-induced parthanatic cell death” value (“inhibition” below) is reported as “blocked” and the IC50 is 0.28 µM. Moreover, in the series on SH-SY5Y cells (PAAN/MIF KO SH-SY5Y cells expressing L61A, 60-63A or N72A, 1 μM), the “protection against MNNG-induced parthanatic cell death in PAAN/MIF mutant cells” value is recorded as “significantly reduced”. For the same molecule, in series [1] (2 h), the “levels detected in the brain relative to compound 56” value is reported as around 3 fold.
Regarding `COc1ccc(CC[C@H]2OC(=O)[C@@H]3CCCCN3C(=O)C(=O)C(C)(C)COC(=O)C=CCCN(C)C(=O)[C@@H]3CCCN3C(=O)[C@H](COC(C)(C)C)N(C)C(=O)C(c3ccccc3)NC(=O)CN(C)C(=O)COc3cccc2c3)cc1OC` (some centres unmarked) [compound 41], the “inhibition” value with SH-SY5Y cells is reported as “prominently blocked”. The “MNNG-induced PARP activation (PAR accumulation)” value (“MNNG-induced PARP activation” below) with PARP is reported as “did not affect”.
Take `COc1ccc(CC[C@H]2OC(=O)[C@@H]3CCCCN3C(=O)C(=O)C(C)(C)COC(=O)C=CCCN(C)C(=O)[C@@H]3CCCN3C(=O)[C@H](COC(C)(C)C)N(C)C(=O)C(c3ccccc3)NC(=O)[C@H](C)N(C)C(=O)COc3cccc2c3)cc1OC` (some centres unmarked) [compound 56]: in the series with SH-SY5Y cells, the “inhibition” value was “prominently blocked” and the IC50 turned out to be 0.52 µM. Also, in the series on PARP, the “MNNG-induced PARP activation” value is “did not affect”. The concentration at 2 h in series [1] (C57BL/6, mouse, brain, read-out: achievable concentration in brain) is below 500 nM. In series [1] (2 h), the “ability to cross the blood brain barrier (BBB)” value is listed as “crossed the BBB”.
On to `COc1ccc(CC[C@H]2OC(=O)[C@@H]3CCCCN3C(=O)C(=O)C(C)(C)COC(=O)C=CCCN(C)C(=O)CNC(=O)[C@H](C(C)C)N(C)C(=O)[C@@H](Cc3ccccc3)NC(=O)[C@H](CC(C)C)N(C)C(=O)CCC(=O)Nc3cccc2c3)cc1OC` [compound 76], for which, in the series with SH-SY5Y cells, the “inhibition” value was “prominently blocked”. The “MNNG-induced PARP activation” value in the series with PARP is listed as “did not affect”.
With `COc1ccc(CC[C@H]2OC(=O)[C@@H]3CCCCN3C(=O)C(=O)C(C)(C)COC(=O)C=CCCN(C)C(=O)[C@H](C)NC(=O)[C@H](C(C)C)N(C)C(=O)[C@@H](Cc3ccccc3)NC(=O)[C@H](CC(C)C)N(C)C(=O)CCC(=O)Nc3cccc2c3)cc1OC` [compound 77], the “inhibition” value in the series on SH-SY5Y cells is “prominently blocked”. Further, in the series with PARP, the “MNNG-induced PARP activation” value was “did not affect”. Further, in series [1] (2 h), the “ability to cross the blood brain barrier (BBB)” value was “only compound 56 crossed the BBB”.
`COc1ccc(CC[C@H]2OC(=O)[C@@H]3CCCCN3C(=O)C(=O)C(C)(C)COC(=O)C=CCCN(C)C(=O)[C@@H]3CCCN3C(=O)[C@H](CO)N(C)C(=O)C(c3ccccc3)NC(=O)[C@H](C)N(C)C(=O)COc3cccc2c3)cc1OC` (some centres unmarked) [compound 97]: the “inhibition” value in the series with SH-SY5Y cells is “has no effect”.

For orientation: IC50 means the concentration that gives 50% inhibition.

Values taken from patent publication US20220372014A1, “NEUROPROTECTIVE COMPOUNDS AND METHODS OF USE THEREOF” (The Johns Hopkins University, priority 2019, published 2022).
